Patent US8952024B2, “Herbicidal pyrimidone derivatives” (E I du Pont de Nemours and Company, priority 2009, dated 2015)

How the values were obtained:
Assay in all cases: Test B pre-/postemergence plant response
Type in all cases: in vivo
kochia (Kochia scoparia) = conditions: Postemergence
In short: (§1)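 Test compounds, formulated in a non-phytotoxic solvent mixture with surfactant, are applied to the soil surface (loam and sand blend) right after seeding, or sprayed over plants at the 1- to 4-leaf stage grown in peat moss/vermiculite medium. After 13 to 15 days under glasshouse conditions, each species is scored visually from 0 (no effect) to 100 (complete control) against controls.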

soybean (Glycine max) = test system: soybean (Glycine max)
In short: as §1

corn (Zea mays) = test system: corn (Zea mays)
In short: as §1

[1] = test system: blackgrass (Alopecurus myosuroides)
In short: as §1

[2] = test system: goosegrass (Eleusine indica)
In short: as §1

[3] = test system: velvetleaf (Abutilon theophrasti)
In short: as §1

[4] = test system: johnsongrass (Sorghum halepense)
In short: as §1

[5] = test system: Italian ryegrass (Lolium multiflorum)
In short: as §1

[6] = test system: ragweed (common ragweed, Ambrosia elatior)
In short: as §1

[7] = test system: green foxtail (Setaria viridis)
In short: as §1

[8] = test system: giant foxtail (Setaria faberii)
In short: as §1

[9] = test system: large crabgrass (Digitaria sanguinalis)
In short: as §1

[10] = test system: cocklebur (Xanthium strumarium)
In short: as §1

[11] = test system: morningglory (Ipomoea coccinea)
In short: as §1

[12] = 31 g ai/ha, 0 to 100 scale (0 no effect, 100 complete control)
[13] = 125 g ai/ha, scale 0 to 100 (0 no effect, 100 complete control)
[14] = 250 g ai/ha, scale 0 to 100 (0 no effect, 100 complete control), 13 to 15 days
[15] = Postemergence, 31 g ai/ha, 0 to 100 scale (0 no effect, 100 complete control)
[16] = Postemergence, 125 g ai/ha, scale 0 to 100 (0 no effect, 100 complete control)
[17] = Postemergence, 250 g ai/ha, scale 0 to 100 (0 no effect, 100 complete control), 13 to 15 days
[18] = Postemergence, 62 g ai/ha, scale 0 to 100 (0 no effect, 100 complete control)
[19] = Preemergence, 31 g ai/ha, scale 0 to 100 (0 no effect, 100 complete control)
[20] = Preemergence, 62 g ai/ha, scale 0 to 100 (0 no effect, 100 complete control)
[21] = Preemergence, 125 g ai/ha, scale 0 to 100, 0 no effect, 100 complete control
[22] = Preemergence, 250 g ai/ha, 0 to 100 scale

With `O=C1CCCC(O)=C1C(=O)c1cnc(-c2cccs2)n(C2CCCCC2)c1=O` [Compound 189] the “Plant response rating, Kochia” value (kochia (Kochia scoparia); [12]) was 85, the “Plant response rating, Kochia” value (kochia (Kochia scoparia); [13]) was 98 and the “Plant response rating, Kochia” value (kochia (Kochia scoparia); [14]) was 100. For the same molecule, the “Plant response rating, Soybean” value (soybean (Glycine max); [15]) was 90, the “Plant response rating, Soybean” value (soybean (Glycine max); [16]) was 98 and the “Plant response rating, Soybean” value (soybean (Glycine max); [17]) was 100. The “Plant response rating, Corn” value (corn (Zea mays); [15]) was 20, the “Plant response rating, Corn” value (corn (Zea mays); [16]) was 35 and the “Plant response rating, Corn” value (corn (Zea mays); [17]) was 45. The “Blackgrass plant response rating (0 to 100 scale)” value ([1]; 62 g ai/ha, postemergence, 0 is no effect, 100 is complete control, 13 to 15 days) was 0, the “Plant response rating, Blackgrass” value [1, 15] was 0 and the “Plant response rating, Blackgrass” value [1, 16] was 5. The “Plant response rating, Blackgrass” value [1, 17] was 5, the “Plant response rating, Goosegrass” value [2, 15] was 60 and the “Plant response rating, Goosegrass” value [2, 16] was 90. For the same molecule, the “Plant response rating, Goosegrass” value [2, 17] was 90, the “Plant response rating, Velvetleaf” value [3, 15] was 85 and the “Plant response rating, Velvetleaf” value [3, 16] was 100. The “Plant response rating, Velvetleaf” value [3, 17] was 100, the “Plant response rating, Johnsongrass” value [4, 15] was 50 and the “Plant response rating, Johnsongrass” value [4, 16] was 65. The “Plant response rating, Johnsongrass” value [4, 17] was 70, the “Plant response rating, Ryegrass, Italian” value [5, 15] was 0 and the “Plant response rating, Ryegrass, Italian” value [5, 16] was 5. The “Plant response rating, Ryegrass, Italian” value [5, 17] was 5, the “Plant response rating, Ragweed” value [6, 15] was 10 and the “Plant response rating, Ragweed” value [6, 16] was 75. The “Plant response rating, Ragweed” value [6, 17] was 80, the “Plant response rating, Foxtail, Green” value [7, 15] was 65 and the “Plant response rating, Foxtail, Green” value [7, 16] was 90. The “Plant response rating, Foxtail, Green” value [7, 17] was 95, the “Plant response rating, Foxtail, Giant” value [8, 15] was 75 and the “Plant response rating, Foxtail, Giant” value [8, 16] was 90. For the same molecule, the “Plant response rating, Foxtail, Giant” value [8, 17] was 98, the “Plant response rating, Crabgrass, Large” value [9, 15] was 75 and the “Plant response rating, Crabgrass, Large” value [9, 16] was 95. For the same molecule, the “Plant response rating, Crabgrass, Large” value [9, 17] was 100, the “Plant response rating, Cocklebur” value [10, 15] was 60 and the “Plant response rating, Cocklebur” value [10, 16] was 100. For the same molecule, the “Plant response rating, Cocklebur” value [10, 17] was 100, the “Plant response rating, Morningglory” value [11, 15] was 100 and the “Plant response rating, Morningglory” value [11, 16] was 100. For the same molecule, the “Plant response rating, Morningglory” value [11, 17] was 100.
With `COc1ccc(-n2c(-c3ccccc3)ncc(C(=O)C3=C(O)CCCC3=O)c2=O)cc1OC` [Compound 218] the “Plant response rating, Kochia” value (kochia (Kochia scoparia); [12]) was 35, the “Plant response rating, Kochia” value (kochia (Kochia scoparia); 62 g ai/ha, scale 0 to 100 (0 no effect, 100 complete control)) was 85 and the “Plant response rating, Kochia” value (kochia (Kochia scoparia); [13]) was 100. The “Plant response rating, Kochia” value (kochia (Kochia scoparia); [14]) was 100, the “Plant response rating, Soybean” value (soybean (Glycine max); [15]) was 85 and the “Plant response rating, Soybean” value (soybean (Glycine max); [18]) was 100. The “Plant response rating, Soybean” value (soybean (Glycine max); [17]) was 100, the “Plant response rating, Soybean” value (soybean (Glycine max); [19]) was 0 and the “Plant response rating, Soybean” value (soybean (Glycine max); [20]) was 65. The “Plant response rating, Soybean” value (soybean (Glycine max); [21]) was 80, the “Soybean plant response rating” value (soybean (Glycine max); [22]) was 90 and the “Plant response rating, Corn” value (corn (Zea mays); [15]) was 0. The “Plant response rating, Corn” value (corn (Zea mays); [18]) was 10, the “Plant response rating, Corn” value (corn (Zea mays); [16]) was 75 and the “Plant response rating, Corn” value (corn (Zea mays); [17]) was 80. For the same molecule, the “Plant response rating, Corn” value (corn (Zea mays); [19]) was 0, the “Plant response rating, Corn” value (corn (Zea mays); [20]) was 0 and the “Plant response rating, Corn” value (corn (Zea mays); [21]) was 0. The “Corn plant response rating” value (corn (Zea mays); [22]) was 0, the “Plant response rating, Blackgrass” value [1, 15] was 0 and the “Plant response rating, Blackgrass” value [1, 18] was 0. For the same molecule, the “Plant response rating, Blackgrass” value [1, 16] was 5, the “Plant response rating, Blackgrass” value [1, 17] was 5 and the “Plant response rating, Blackgrass” value [1, 19] was 0. The “Plant response rating, Blackgrass” value [1, 20] was 0, the “Plant response rating, Blackgrass” value [1, 21] was 0 and the “Blackgrass plant response rating” value [1, 22] was 20. For the same molecule, the “Plant response rating, Goosegrass” value [2, 15] was 0, the “Plant response rating, Goosegrass” value [2, 18] was 10 and the “Plant response rating, Goosegrass” value [2, 16] was 15. For the same molecule, the “Plant response rating, Goosegrass” value [2, 17] was 35, the “Plant response rating, Goosegrass” value [2, 19] was 10 and the “Plant response rating, Goosegrass” value [2, 20] was 60. The “Plant response rating, Goosegrass” value [2, 21] was 98, the “Goosegrass plant response rating” value [2, 22] was 98 and the “Plant response rating, Velvetleaf” value [3, 15] was 85. The “Plant response rating, Velvetleaf” value [3, 18] was 100, the “Plant response rating, Velvetleaf” value [3, 17] was 100 and the “Plant response rating, Velvetleaf” value [3, 19] was 80. For the same molecule, the “Plant response rating, Velvetleaf” value [3, 20] was 85, the “Plant response rating, Velvetleaf” value [3, 21] was 90 and the “Velvetleaf plant response rating” value [3, 22] was 100. The “Plant response rating, Johnsongrass” value [4, 16] was 55, the “Plant response rating, Johnsongrass” value [4, 17] was 80 and the “Plant response rating, Johnsongrass” value [4, 19] was 0. The “Plant response rating, Johnsongrass” value [4, 20] was 0, the “Plant response rating, Johnsongrass” value [4, 21] was 20 and the “Johnsongrass plant response rating” value [4, 22] was 45. For the same molecule, the “Plant response rating, Ryegrass, Italian” value [5, 15] was 30, the “Plant response rating, Ryegrass, Italian” value [5, 18] was 40 and the “Plant response rating, Ryegrass, Italian” value [5, 17] was 70. The “Plant response rating, Ryegrass, Italian” value [5, 19] was 0, the “Plant response rating, Ryegrass, Italian” value [5, 20] was 0 and the “Plant response rating, Ryegrass, Italian” value [5, 21] was 5. For the same molecule, the “Ryegrass, Italian plant response rating” value [5, 22] was 5, the “Plant response rating, Ragweed” value [6, 15] was 95 and the “Plant response rating, Ragweed” value [6, 18] was 95. For the same molecule, the “Plant response rating, Ragweed” value [6, 17] was 100, the “Plant response rating, Ragweed” value [6, 19] was 85 and the “Plant response rating, Ragweed” value [6, 20] was 95. The “Plant response rating, Ragweed” value [6, 21] was 98, the “Ragweed plant response rating” value [6, 22] was 100 and the “Plant response rating, Foxtail, Green” value [7, 15] was 60. For the same molecule, the “Plant response rating, Foxtail, Green” value [7, 18] was 85, the “Plant response rating, Foxtail, Green” value [7, 16] was 90 and the “Plant response rating, Foxtail, Green” value [7, 17] was 90. For the same molecule, the “Plant response rating, Foxtail, Green” value [7, 19] was 0, the “Plant response rating, Foxtail, Green” value [7, 20] was 30 and the “Plant response rating, Foxtail, Green” value [7, 21] was 80. For the same molecule, the “Foxtail, Green plant response rating” value [7, 22] was 100, the “Plant response rating, Foxtail, Giant” value [8, 15] was 40 and the “Plant response rating, Foxtail, Giant” value [8, 18] was 55. For the same molecule, the “Plant response rating, Foxtail, Giant” value [8, 16] was 65, the “Plant response rating, Foxtail, Giant” value [8, 17] was 85 and the “Plant response rating, Foxtail, Giant” value [8, 19] was 0. For the same molecule, the “Plant response rating, Foxtail, Giant” value [8, 20] was 0, the “Plant response rating, Foxtail, Giant” value [8, 21] was 20 and the “Foxtail, Giant plant response rating” value [8, 22] was 85. The “Plant response rating, Crabgrass, Large” value [9, 15] was 40, the “Plant response rating, Crabgrass, Large” value [9, 18] was 45 and the “Plant response rating, Crabgrass, Large” value [9, 16] was 70. For the same molecule, the “Plant response rating, Crabgrass, Large” value [9, 17] was 90, the “Plant response rating, Crabgrass, Large” value [9, 19] was 0 and the “Plant response rating, Crabgrass, Large” value [9, 20] was 20. For the same molecule, the “Plant response rating, Crabgrass, Large” value [9, 21] was 65, the “Crabgrass, Large plant response rating” value [9, 22] was 98 and the “Plant response rating, Cocklebur” value [10, 20] was 0. The “Plant response rating, Cocklebur” value [10, 21] was 90, the “Cocklebur plant response rating” value [10, 22] was 100 and the “Plant response rating, Morningglory” value [11, 15] was 70. For the same molecule, the “Plant response rating, Morningglory” value [11, 18] was 70, the “Plant response rating, Morningglory” value [11, 16] was 80 and the “Plant response rating, Morningglory” value [11, 17] was 98. For the same molecule, the “Plant response rating, Morningglory” value [11, 19] was 0, the “Plant response rating, Morningglory” value [11, 20] was 0 and the “Plant response rating, Morningglory” value [11, 21] was 15. For the same molecule, the “Morningglory plant response rating” value [11, 22] was 65.
